Experimental data reported in US20260209223A1, “FGFR3 INHIBITOR COMPOUNDS” (TYRA BIOSCIENCES, INC., priority 2022, published 2026).

Experiments:
[1] = tested on: RT112/84; test: Cancer cell line cell viability assay (CellTiter-Glo 2.0); type: cell-based; settings: Homo sapiens; RT112/84 (FGFR3-fusion) cell viability, 72 hours
Description: (§1) Experimental Purpose: To detect the change of intracellular ATP by Cell Titer-Glo® and to evaluate the inhibitory effect of the compounds on cancer cell lines by determining the in vitro IC50 value of the compounds.
(§2) Cell Titer-Glo® 2.0 Luminescent cell viability assay reagent was purchased from Promega (Madison, WI). RT112/84 and KG-1 cell lines were purchased from American Type Culture Collection (Manassas, VA). UM-UC-14 cell line was purchased from Sigma (St. Louis, MO). RT112/84, UM-UC-14, and KG-1 cells were cultured in RPMI1640 media supplemented with 10% fetal bovine serum. Cultures were maintained at 37° C. in a humidified atmosphere of 5% CO2 and 95% air.
(§3) Cell Viability Assay Procedure: Cells were plated in 96-well clear bottom/white plates (Corning #3903) at 10,000 cells/well in 100 μl of media, incubated overnight. The next day, test compound DMSO stock solutions were made at 10 mM and 2 μM final concentration.
(§4) Compounds were then added to cells in a 9-dose, […] dilution series starting at 30 μM with an HP 300e Digital Dispenser (each dose was applied in triplicate). DMSO was backfilled to each well up to 301 nL total volume of test compound+DMSO, and a total of 301 nL DMSO was added to a control/no test compound well in triplicate. The cells in cell culture plates were incubated with the compounds at 37° C. and 5% CO2 for 72 hours. Then 50 μl of Cell Titer Glo 2.0 reagent was added to each well of the cell culture plates. The contents were covered from light and mixed on an orbital shaker at room temperature for 10 min.
(§5) Luminescence was recorded by a Synergy H1 Microplate Reader (Biotek, Winooski, VT). Cells were assessed as a percentage of DMSO only treated control cells. Curves were plotted and IC50 values were calculated using the GraphPad Prism 8 program based on a sigmoidal dose-response equation (4 parameter).

[2] = tested on: KG-1; test: as above; type: cell-based; settings: Homo sapiens; KG-1 (FGFR1-fusion) cell viability, 72 hours
Description: as §1, §2, §3, §4, §5

[3] = molecular target: T1, Ba/F3 FGFR3-BAIAP2L1 (Homo sapiens, UniProt P22607); test: Ba/F3 cell viability assay (CellTiter-Glo 2.0); type: cell-based; settings: Ba/F3 cell data, FGFR3-BAIAP2L1 fusion, 48 hours
T1 construct: BAIAP2L1 (fusion partner, Q9UHR4 if human); host or cells: Ba/F3; the other entry of the earlier key: BAIAP2L1 (Q9UHR4, BAR/IMD domain-containing adapter protein 2-like 1)
T1 sequence (P22607 397-758 limits assumed): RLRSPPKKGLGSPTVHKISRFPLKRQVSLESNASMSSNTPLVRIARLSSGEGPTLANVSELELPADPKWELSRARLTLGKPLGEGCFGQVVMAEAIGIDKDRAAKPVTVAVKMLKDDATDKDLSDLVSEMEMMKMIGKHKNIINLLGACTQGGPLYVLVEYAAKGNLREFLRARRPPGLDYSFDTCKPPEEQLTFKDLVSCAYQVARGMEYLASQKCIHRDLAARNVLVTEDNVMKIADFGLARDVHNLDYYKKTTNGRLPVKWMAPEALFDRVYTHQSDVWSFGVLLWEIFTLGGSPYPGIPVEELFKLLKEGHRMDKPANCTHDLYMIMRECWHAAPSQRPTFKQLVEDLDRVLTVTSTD

[4] = tested on: KatoIIII; test: Cancer cell line cell viability assay (CellTiter-Glo 2.0); type: cell-based; settings: 72 hours
[5] = molecular target: T2, FGFR3 (Homo sapiens, UniProt P22607); test: Kinase binding assay (Kd), kinase-tagged T7 phage, affinity beads, qPCR; settings: in vitro binding assay, 11-point 3-fold dilution series
T2 construct: made in house; host or cells: E. coli (BL21-derived) infected with T7 phage
T2 sequence (P22607 23-806): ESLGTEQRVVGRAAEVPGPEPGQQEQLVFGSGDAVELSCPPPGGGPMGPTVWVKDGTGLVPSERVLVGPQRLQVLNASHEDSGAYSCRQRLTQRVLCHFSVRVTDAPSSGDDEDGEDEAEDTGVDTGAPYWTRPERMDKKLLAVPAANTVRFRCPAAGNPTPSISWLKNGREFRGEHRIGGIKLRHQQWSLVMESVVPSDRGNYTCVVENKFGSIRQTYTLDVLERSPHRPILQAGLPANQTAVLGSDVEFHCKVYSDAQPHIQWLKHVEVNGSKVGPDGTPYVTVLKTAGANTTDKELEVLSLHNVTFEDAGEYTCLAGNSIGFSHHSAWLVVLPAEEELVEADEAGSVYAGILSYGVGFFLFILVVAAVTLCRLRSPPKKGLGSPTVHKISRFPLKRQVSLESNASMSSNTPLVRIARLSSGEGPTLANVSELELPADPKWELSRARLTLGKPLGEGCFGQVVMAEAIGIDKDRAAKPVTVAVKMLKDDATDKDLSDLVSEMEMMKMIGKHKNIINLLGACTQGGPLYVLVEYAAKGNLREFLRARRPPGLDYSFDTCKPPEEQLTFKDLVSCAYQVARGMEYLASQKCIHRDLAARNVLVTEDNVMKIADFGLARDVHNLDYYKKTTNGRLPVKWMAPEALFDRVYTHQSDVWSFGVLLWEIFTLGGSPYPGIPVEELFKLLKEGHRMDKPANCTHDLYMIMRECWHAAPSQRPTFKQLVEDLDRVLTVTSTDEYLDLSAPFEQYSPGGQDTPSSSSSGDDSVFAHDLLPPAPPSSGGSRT
Procedure: (§6) Kinase-tagged T7 phage strains were prepared in an E. coli host derived from the BL21 strain. E. coli were grown to log-phase and infected with T7 phage and incubated with shaking at 32° C. until lysis. The lysates were centrifuged and filtered to remove cell debris. Streptavidin-coated magnetic beads were treated with biotinylated small molecule ligands for 30 minutes at room temperature to generate affinity resins for kinase assays. The liganded beads were blocked with excess biotin and washed with blocking buffer SeaBlock (Pierce), 1% BSA, 0.05% Tween 20, 1 mM DTT to remove unbound ligand and to reduce non-specific binding. Binding reactions were assembled by combining kinases, liganded affinity beads, and test compounds in 1× binding buffer (20% SeaBlock, 0.17×PBS, 0.05% Tween 20, 6 mM DTT).
(§7) Test compounds were prepared as 111× stocks in 100% DMSO. Kds were determined using an 11-point 3-fold compound dilution series with three DMSO control points. All compounds for Kd measurements are distributed by acoustic transfer (non-contact dispensing) in 100% DMSO. The compounds were then diluted directly into the assays such that the final concentration of DMSO was 0.9%. All reactions performed in polypropylene 384-well plate. Each was a final volume of 0.02 ml. The assay plates were incubated at room temperature with shaking for 1 hour and the affinity beads were washed with wash buffer (1×PBS, 0.05% Tween 20). The beads were then re-suspended in elution buffer (1×PBS, 0.05% Tween 20, 0.5 μM non-biotinylated affinity ligand) and incubated at room temperature with shaking for 30 minutes. The kinase concentration in the eluates was measured by qPCR.
(§8) Binding constants were calculated with a standard dose-response curve using the Hill equation: […]
(§9) The Hill Slope was set to −1. Curves were fitted using a non-linear least square fit with the Levenberg-Marquardt algorithm.

[6] = molecular target: T3, FGFR1 (Homo sapiens, UniProt P11362); test: as above; settings: in vitro binding assay, 11-point 3-fold dilution series
T3 construct: made in house; host or cells: E. coli (BL21-derived) infected with T7 phage
T3 sequence (P11362 22-822): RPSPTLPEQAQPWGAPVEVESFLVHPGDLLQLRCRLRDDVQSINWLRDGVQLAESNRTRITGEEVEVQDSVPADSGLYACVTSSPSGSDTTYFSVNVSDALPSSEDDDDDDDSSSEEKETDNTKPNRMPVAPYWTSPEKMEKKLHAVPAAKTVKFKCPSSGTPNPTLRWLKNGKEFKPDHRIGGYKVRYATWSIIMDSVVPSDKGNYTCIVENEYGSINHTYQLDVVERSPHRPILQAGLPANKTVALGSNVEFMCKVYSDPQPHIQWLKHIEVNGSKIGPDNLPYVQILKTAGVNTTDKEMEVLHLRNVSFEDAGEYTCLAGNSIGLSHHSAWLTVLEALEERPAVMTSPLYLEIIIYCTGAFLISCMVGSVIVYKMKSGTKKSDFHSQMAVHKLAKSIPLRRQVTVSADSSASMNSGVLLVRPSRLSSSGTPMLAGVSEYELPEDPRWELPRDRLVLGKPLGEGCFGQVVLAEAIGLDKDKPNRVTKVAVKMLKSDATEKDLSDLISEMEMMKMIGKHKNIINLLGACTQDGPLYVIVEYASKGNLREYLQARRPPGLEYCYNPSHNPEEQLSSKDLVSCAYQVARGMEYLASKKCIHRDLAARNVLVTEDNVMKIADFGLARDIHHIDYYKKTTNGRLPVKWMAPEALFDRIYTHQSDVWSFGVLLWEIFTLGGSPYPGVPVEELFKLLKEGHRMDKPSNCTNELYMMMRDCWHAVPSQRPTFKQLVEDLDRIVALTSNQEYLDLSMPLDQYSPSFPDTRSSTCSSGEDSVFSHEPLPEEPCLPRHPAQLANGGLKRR
Procedure: as §6, §7, §8, §9

[7] = molecular target: T4, FGFR2 (Homo sapiens, UniProt P21802); test: as above; settings: in vitro binding assay, 11-point 3-fold dilution series
T4 construct: made in house; host or cells: E. coli (BL21-derived) infected with T7 phage
T4 sequence (P21802 22-821): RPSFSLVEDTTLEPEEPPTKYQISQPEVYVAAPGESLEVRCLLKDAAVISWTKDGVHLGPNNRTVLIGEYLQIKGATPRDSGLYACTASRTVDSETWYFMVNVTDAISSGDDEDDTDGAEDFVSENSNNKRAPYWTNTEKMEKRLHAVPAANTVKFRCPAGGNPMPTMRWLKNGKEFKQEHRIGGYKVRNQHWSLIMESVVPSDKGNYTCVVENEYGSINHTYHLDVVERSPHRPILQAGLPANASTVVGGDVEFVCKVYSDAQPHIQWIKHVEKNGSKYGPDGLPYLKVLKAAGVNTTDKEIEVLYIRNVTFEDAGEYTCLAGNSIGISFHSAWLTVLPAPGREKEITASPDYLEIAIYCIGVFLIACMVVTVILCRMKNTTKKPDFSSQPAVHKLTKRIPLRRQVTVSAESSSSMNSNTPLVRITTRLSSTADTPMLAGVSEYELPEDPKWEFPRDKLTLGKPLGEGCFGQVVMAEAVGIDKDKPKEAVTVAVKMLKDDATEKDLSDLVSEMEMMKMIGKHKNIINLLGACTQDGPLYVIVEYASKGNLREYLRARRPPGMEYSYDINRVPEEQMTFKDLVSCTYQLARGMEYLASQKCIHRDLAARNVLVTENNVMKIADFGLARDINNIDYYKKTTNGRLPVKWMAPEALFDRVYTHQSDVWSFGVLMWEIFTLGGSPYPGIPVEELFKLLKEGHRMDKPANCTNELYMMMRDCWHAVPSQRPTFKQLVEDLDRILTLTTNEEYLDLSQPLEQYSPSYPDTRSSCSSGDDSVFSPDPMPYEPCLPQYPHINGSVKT
Procedure: as §6, §7, §8, §9

[8] = molecular target: T5, FGFR4 (Homo sapiens, UniProt P22455); test: as above; settings: in vitro binding assay, 11-point 3-fold dilution series
T5 construct: made in house; host or cells: E. coli (BL21-derived) infected with T7 phage
T5 sequence (P22455 22-802): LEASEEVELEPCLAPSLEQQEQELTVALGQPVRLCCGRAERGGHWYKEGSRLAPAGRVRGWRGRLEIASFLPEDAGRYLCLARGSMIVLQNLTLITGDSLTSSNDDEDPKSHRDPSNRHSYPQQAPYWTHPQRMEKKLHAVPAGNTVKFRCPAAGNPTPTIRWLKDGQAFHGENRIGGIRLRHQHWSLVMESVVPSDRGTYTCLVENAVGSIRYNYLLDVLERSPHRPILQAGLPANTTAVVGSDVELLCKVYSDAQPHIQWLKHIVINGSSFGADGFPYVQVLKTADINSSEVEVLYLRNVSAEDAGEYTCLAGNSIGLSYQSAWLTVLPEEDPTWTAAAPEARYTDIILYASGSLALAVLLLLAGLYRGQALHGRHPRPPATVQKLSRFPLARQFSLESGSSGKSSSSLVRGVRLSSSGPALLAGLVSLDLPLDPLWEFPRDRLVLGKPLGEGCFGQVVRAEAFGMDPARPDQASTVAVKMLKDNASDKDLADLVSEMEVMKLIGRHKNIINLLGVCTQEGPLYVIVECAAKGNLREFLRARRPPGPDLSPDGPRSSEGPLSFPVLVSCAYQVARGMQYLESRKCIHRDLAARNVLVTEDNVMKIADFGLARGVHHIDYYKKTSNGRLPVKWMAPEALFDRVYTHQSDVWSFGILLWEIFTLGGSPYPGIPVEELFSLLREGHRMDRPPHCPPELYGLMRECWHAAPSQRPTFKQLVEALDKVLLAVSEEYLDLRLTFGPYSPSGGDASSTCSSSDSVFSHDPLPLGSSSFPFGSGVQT
Procedure: as §6, §7, §8, §9

[9] = molecular target: T6, FGFR3 (V555M) (Homo sapiens, UniProt P22607, V555M); test: as above; settings: in vitro binding assay, 11-point 3-fold dilution series
T6 construct: made in house; host or cells: E. coli (BL21-derived) infected with T7 phage
T6 sequence (P22607 23-806 V555M): as the sequence (P22607 23-806) above, with V533M counted along it
Procedure: as §6, §7, §8, §9

[10] = molecular target: T7, Ba/F3 BCR-FGFR1 (Homo sapiens, UniProt P11362); test: Ba/F3 cell viability assay (CellTiter-Glo 2.0); type: cell-based; settings: Ba/F3 cell data, BCR-FGFR1 fusion, 48 hours
T7 construct: BCR (fusion partner); host or cells: Ba/F3; the other entry of the earlier key: BCR (P11274, Breakpoint cluster region protein)
T7 sequence (P11362 478-767 limits assumed): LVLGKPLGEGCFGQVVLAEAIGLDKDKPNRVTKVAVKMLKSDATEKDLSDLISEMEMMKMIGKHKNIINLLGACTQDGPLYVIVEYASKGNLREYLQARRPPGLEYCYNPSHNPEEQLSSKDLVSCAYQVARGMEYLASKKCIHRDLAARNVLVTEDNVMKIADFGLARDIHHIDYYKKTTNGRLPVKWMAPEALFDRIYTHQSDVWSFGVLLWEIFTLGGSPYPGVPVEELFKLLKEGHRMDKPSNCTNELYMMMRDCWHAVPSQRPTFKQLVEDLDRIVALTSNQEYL

[11] = molecular target: T8, Ba/F3 ETV5-FGFR4 (Homo sapiens, UniProt P22455); test: Ba/F3 cell viability assay (CellTiter-Glo 2.0); type: cell-based; settings: Ba/F3 cell data, ETV5-FGFR4 fusion, 48 hours
T8 construct: host or cells: Ba/F3; the other entry of the earlier key: ETV5 (P41161, ETS translocation variant 5)
T8 sequence (P22455 467-755 limits assumed): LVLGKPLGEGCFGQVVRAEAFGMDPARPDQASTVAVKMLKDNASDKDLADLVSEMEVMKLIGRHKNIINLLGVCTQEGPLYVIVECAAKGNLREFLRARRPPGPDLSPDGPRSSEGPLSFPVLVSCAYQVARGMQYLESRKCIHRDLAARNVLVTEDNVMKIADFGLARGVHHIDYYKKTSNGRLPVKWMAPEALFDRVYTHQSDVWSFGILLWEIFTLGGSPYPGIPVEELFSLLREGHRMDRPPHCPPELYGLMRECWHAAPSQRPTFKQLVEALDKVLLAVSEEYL
Description: Experimental Purpose: Recombinant kinase fusions are transduced into parental Ba/F3, which becomes dependent upon this constitutive kinase activity for IL3-independent survival. Inhibition of kinase activity leads to cell death, which is monitored using CellTiter-Glo® 2.0 (Promega) which measures intracellular ATP concentration that in turn serves as a marker for viability. BCR-FGFR1 Ba/F3, BCR-FGFR2 and FGFR3-BAIAP2L1 Ba/F3 were obtained from Advanced Cellular Dynamics (Seattle, WA). ETV6-FGFR4 was obtained from Kyinno (Waltham, MA).
Cell Viability Assay Procedure: Cell Titer-Glo® 2.0 Luminescent cell viability assay reagent was purchased from Promega (Madison, WI). Ba/F3 cell lines were cultured in RPMI1640 media supplemented with 10% fetal bovine serum. Cultures were maintained at 37° C. in a humidified atmosphere of 5% CO2 and 95% air.
Cells were plated in 96-well clear bottom/white plates (Corning #3903) at 10,000 cells/well in 100 μl of media, incubated overnight. The next day, test compound DMSO stock solutions were made at 10 mM and 2 μM final concentration. Compounds were then added to cells in a 9-dose, 10-fold dilution series starting at 30 μM with an HP 300e Digital Dispenser (each dose was applied in triplicate). DMSO was backfilled to each well up to 301 nL total volume of test compound+DMSO, and a total of 301 nL DMSO was added to a control/no test compound well in triplicate. The cells in cell culture plates were incubated with the compounds at 37° C. and 5% CO2 for 48 hours. Then 50 μl of Cell Titer Glo 2.0 reagent was added to each well of the cell culture plates. The contents were covered from light and mixed on an orbital shaker at room temperature for 10 min. Luminescence was recorded by a Synergy H1 Microplate Reader (Biotek, Winooski, VT). Cells were assessed as a percentage of DMSO only treated control cells. Curves were plotted and IC50 values were calculated using the GraphPad Prism 8 program based on a sigmoidal dose-response equation (4 parameter).

[12] = molecular target: T9, Ba/F3 BCR-FGFR2 (Homo sapiens, UniProt P21802); test: Ba/F3 cell viability assay (CellTiter-Glo 2.0); type: cell-based; settings: Ba/F3 cell data, BCR-FGFR2 fusion, 48 hours
T9 construct: BCR (fusion partner); host or cells: Ba/F3; the other entry of the earlier key: BCR (P11274, Breakpoint cluster region protein)
T9 sequence (P21802 481-770 limits assumed): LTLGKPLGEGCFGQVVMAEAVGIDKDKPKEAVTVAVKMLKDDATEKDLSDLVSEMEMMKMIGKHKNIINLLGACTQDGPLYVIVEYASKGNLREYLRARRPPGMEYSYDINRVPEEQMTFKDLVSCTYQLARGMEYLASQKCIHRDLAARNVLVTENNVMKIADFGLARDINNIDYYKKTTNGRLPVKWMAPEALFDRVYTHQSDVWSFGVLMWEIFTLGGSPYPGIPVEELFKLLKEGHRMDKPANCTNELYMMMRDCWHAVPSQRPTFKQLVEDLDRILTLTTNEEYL

## C=CC(=O)N1CCC2(CC1)CC(n1ncc(-c3cc(O[C@H](CO)c4ccccn4)c4c(C#N)cnn4c3)c1C)C2 [Example 8, (S)-6-(1-(7-acryloyl-7-azaspiro[3.5]nonan-2-yl)-5-methyl-1H-pyrazol-4-yl)-4-(2-hydroxy-1-(pyridin-2-yl)ethoxy)pyrazolo[1,5-a]pyridine-3-carbonitrile]
[1]
  IC50: 100 to 250 nM
[2]
  IC50: 100 to 250 nM
[3]
  Kd: 0.1 to 100 nM
[4]
  IC50: 100 to 250 nM
[5]
  Kd: 0.1 to 100 nM
[6]
  Kd: 0.1 to 100 nM
[7]
  Kd: 0.1 to 100 nM
[8]
  Kd: 0.1 to 100 nM
[9]
  Kd: 0.1 to 100 nM
[10]
  Kd: 100 to 250 nM
[11]
  Kd: 250 to 1000 nM
[12]
  Kd: 100 to 250 nM

## C=CC(=O)N1CCC2(CC1)CC(n1ncc(-c3cc(O[C@H](CO)c4ccc(F)cn4)c4c(C#N)cnn4c3)c1C)C2 [Example 9, (S)-6-(1-(7-acryloyl-7-azaspiro[3.5]nonan-2-yl)-5-methyl-1H-pyrazol-4-yl)-4-(1-(5-fluoropyridin-2-yl)-2-hydroxyethoxy)pyrazolo[1,5-a]pyridine-3-carbonitrile]
[1]
  IC50: 250 to 1000 nM
[2]
  IC50: ≥ 1000 nM
[3]
  Kd: 0.1 to 100 nM
[4]
  IC50: 250 to 1000 nM
[5]
  Kd: 0.1 to 100 nM
[6]
  Kd: 0.1 to 100 nM
[7]
  Kd: 0.1 to 100 nM
[8]
  Kd: 0.1 to 100 nM
[9]
  Kd: 0.1 to 100 nM
[10]
  Kd: 250 to 1000 nM
[11]
  Kd: 250 to 1000 nM
[12]
  Kd: 100 to 250 nM

## C=CC(=O)N1CC(C(=O)N2CCC(n3nnc(-c4cc(O[C@H](CO)c5ccccn5)c5c(C#N)cnn5c4)c3C)CC2)C1 (single isomer, unassigned) [Example 18]
[1]
  IC50: ≥ 1000 nM
[2]
  IC50: ≥ 1000 nM
[3]
  Kd: 250 to 1000 nM
[4]
  IC50: ≥ 1000 nM
[5]
  Kd: 0.1 to 100 nM
[6]
  Kd: 0.1 to 100 nM
[7]
  Kd: 0.1 to 100 nM
[8]
  Kd: 0.1 to 100 nM
[9]
  Kd: 0.1 to 100 nM
[10]
  Kd: ≥ 1000 nM
[11]
  Kd: ≥ 1000 nM
[12]
  Kd: ≥ 1000 nM

## C=CC(=O)N1CCC2(CC1)CC(n1ncc(-c3cc(OC(CO)c4ccn(C)n4)c4c(C#N)cnn4c3)c1C)C2 (stereo not drawn) [Example 14, 6-(1-(7-acryloyl-7-azaspiro[3.5]nonan-2-yl)-5-methyl-1H-pyrazol-4-yl)-4-(2-hydroxy-1-(1-methyl-1H-pyrazol-3-yl)ethoxy)pyrazolo[1,5-a]pyridine-3-carbonitrile]
[1]
  IC50: 250 to 1000 nM
[2]
  IC50: 250 to 1000 nM
[3]
  Kd: 0.1 to 100 nM
[4]
  IC50: 250 to 1000 nM
[5]
  Kd: 0.1 to 100 nM
[6]
  Kd: 100 to 250 nM
[7]
  Kd: 0.1 to 100 nM
[8]
  Kd: 100 to 250 nM
[9]
  Kd: 100 to 250 nM
[10]
  Kd: 250 to 1000 nM
[11]
  Kd: 250 to 1000 nM
[12]
  Kd: 250 to 1000 nM

## C=CC(=O)N1CCC(n2ncc(-c3cc(O[C@H](CO)c4ccc(F)cn4)c4c(C#N)cnn4c3)c2C)CC1 [Example 1, 4-[(1S)-1-(5-fluoro-2-pyridyl)-2-hydroxy-ethoxy]-6-[5-methyl-1-(1-prop-2-enoyl-4-piperidyl)pyrazol-4-yl]pyrazolo[1,5-a]pyridine-3-carbonitrile]
[1]
  IC50: 100 to 250 nM
[2]
  IC50: ≥ 1000 nM
[3]
  Kd: 0.1 to 100 nM
[4]
  IC50: 100 to 250 nM
[5]
  Kd: 0.1 to 100 nM
[6]
  Kd: 100 to 250 nM
[7]
  Kd: 0.1 to 100 nM
[8]
  Kd: 100 to 250 nM
[9]
  Kd: 0.1 to 100 nM
[10]
  Kd: 250 to 1000 nM
[11]
  Kd: 250 to 1000 nM
[12]
  Kd: 100 to 250 nM

## C=CC(=O)N1CCC2(CC1)CC(n1nnc(-c3cc(O[C@H](C)c4ccccn4)c4c(C#N)cnn4c3)c1C)C2 [Example 3, (R)-6-(1-(7-acryloyl-7-azaspiro[3.5]nonan-2-yl)-5-methyl-1H-1,2,3-triazol-4-yl)-4-(1-(pyridin-2-yl)ethoxy)pyrazolo[1,5-a]pyridine-3-carbonitrile]
[1]
  IC50: 0.1 to 100 nM
[2]
  IC50: 0.1 to 100 nM
[3]
  Kd: 0.1 to 100 nM
[4]
  IC50: 0.1 to 100 nM
[5]
  Kd: 0.1 to 100 nM
[6]
  Kd: 0.1 to 100 nM
[10]
  Kd: 0.1 to 100 nM
[11]
  Kd: 100 to 250 nM
[12]
  Kd: 0.1 to 100 nM
